These are literature values, as cited in PMC5340309 (Biomacromolecules, 2016).

Holding throughout (details): included for comparison
In data set [1] the test system is K. pneumoniae (ATCC 13383).
Data set [2] concerns Methicillin-resistant S. epidermidis (MRSE, RP62A).
For data set [3], the system named is Methicillin-resistant S. aureus (MRSA, ATCC 33591).
Data set [4] concerns P. aeruginosa (ATCC27853).

On to pexiganan, for which the “MIC K. pneumonia (Gram−)” value in data set [1] is 32 µg/mL. In addition, the “MIC MRSE (Gram+)” value in data set [2] was 8 µg/mL. Also, the “MIC MRSA (Gram+)” value in data set [3] is 16 µg/mL. The “MIC P. aeruginosa (Gram−)” value in data set [4] is 16 µg/mL.
